In PMC9120013, “Ribosome inhibition by C9ORF72-ALS/FTD-associated poly-PR and poly-GR proteins revealed by cryo-EM” (Nature Communications, 2022):
Ends that are not written are not given here.

Key:
[1] = system: translation in E. coli cell lysates; assay: Nanoluciferase translation in E. coli cell lysate (NEBExpress); assay type: biochemical; settings: n=3
Experimental: E. coli cell lysates (NEBExpress, NEB) were used to investigate bacterial translation inhibition by GR20 and PR20. We monitored the translation of an in vitro transcribed mRNA encoding a Shine-Dalgarno sequence preceding the nanoluciferase (Promega) open reading frame. The mRNA was prepared by in vitro transcription of a PCR-template obtained by amplifying the nanoluciferase open reading frame from the plasmid described in reference with the following primers: T7 + SD-forward: […], based on the pet28a+ plasmid and reverse: […]. […] Then 1 μl of water or different concentrations (10-100 μM) of PR20 or GR20 or 200 μM erythromycin were added and the plate was incubated at 37 °C for 5 min inside of an Infinite m1000 pro microplate reader (Tecan). Next, the nanoluciferase mRNA was added to the final concentration of 20 ng/μl in a 10-μl reaction. Translation reactions were incubated at 37 °C for 20 min, luminescence of the samples was continuously measured by the microplate reader to record the time course of protein synthesis. Time progress curves, obtained in the experiments, were processed in MS Excel, and the rate of change of the relative light units between 100 and 200 s was measured, the mean and SEM of three experiments is reported in column graph in Supplementary Fig. 2a.

[2] = system: ribosomes on endogenous globin mRNAs in RRL; assay: Polysome profiling of RRL translating endogenous mRNA; assay type: biochemical, rabbit; settings: 4 μM PR20, 4 μM GR20, 1 mM GDPCP; 5 min
Experimental: Polysome profiles were obtained using RRL untreated with nuclease, so that it contained endogenous mRNA. 100 μl reactions containing 50% RRL (Green Hectare) 30 μM hemin (Sigma), 75 mM KCl, 0.5 mM MgCl2, 1 mM ATP, 0.2 mM GTP, 2.1 mg/ml creatine phosphate, 30 μM of L-amino acid mix, 15 mg/ml yeast tRNA, 6 mM BME and, when appropriate, translation inhibitors (4 μM PR20, 4 μM GR20, cycloheximide, 40 μM harringtonine, or 1 mM GDPCP with 1 mM MgCl2) were assembled on ice. To start translation, the reactions were warmed in a heat block at either 30 °C or 37 °C as noted. After 5 min, reactions were terminated by addition of 100 μl of ice-cold Stop Buffer (50 mM Hepes-KOH pH 7.4, 150 mM KOAc, 10 mM Mg(OAc)2, and 200 μg/ml cycloheximide). The stopped reactions were applied to 10–50% sucrose gradients in Gradient Buffer (50 mM Hepes-KOH pH 7.4, 150 mM KOAc, 10 mM Mg(OAc)2, 2 mM DTT, and 100 μg/ml cycloheximide) and spun in an SW-41 rotor (Beckman Coulter) at 197,568xg (avg) for 2 h at 4 °C. Gradients were pumped on a Gradient Station (BioComp Instruments) at a pump rate of 0.29 mm/min and the absorbance at 254 nm was measured by an Econo UV monitor (Biorad) zeroed with 10% sucrose-gradient buffer. The traces were output as CSV files and imported into GraphPad Prism, where the 80S peaks were aligned. Controls were highly reproducible day-to-day. Each experimental condition is shown compared to concurrent, uninhibited control.

total HEK293 RNA = assay: DPR-induced RNA aggregation, turbidity OD600; assay type: physicochemical; settings: for visible opalescence / OD600 change: 10 µM; for OD600 change / optical density relative to RNA alone: 100 ng/μl HEK293 RNA; for optical density relative to RNA alone: 0.2 to 1 µM, 20 min, room temperature
Experimental: To test whether arginine-containing DPR proteins cause mRNA aggregation at the DPR concentrations sufficient to inhibit protein synthesis (0.2 and 1 μM), we measured turbidity (optical density at 600 nm; OD600; similarly to[41]) of the solutions containing 100 ng/μl total HEK293 RNA. We incubated RNA with PR20, GR20, GP20 (control), or water for 20 min at room temperature. […] Optical density was measured using NanoDrop One (Thermo Scientific, Waltham, MA, USA).

nanoluciferase = assay: Control: nanoluciferase enzyme activity after translation stopped by cycloheximide; assay type: biochemical; settings: 1 µM added after translation stopped by CHX; n=8
Experimental: The following additional controls indicate that DPR-induced changes in fluorescence were caused by translation inhibition.
Supplementary Fig. 1. […]
(e) Nanoluciferase mRNA was translated in
the absence of DPRs, translation was stopped by cycloheximide (CHX), then 1 µM PR20
or GR20 were added and luminescence was monitored. n=8 independent experiments;
mean of normalized RLU ± SD. […]

N=C(N)NCCC[C@H](NC(=O)CNC(=O)[C@H](CCCNC(=N)N)NC(=O)CNC(=O)[C@H](CCCNC(=N)N)NC(=O)CNC(=O)[C@H](CCCNC(=N)N)NC(=O)CNC(=O)[C@H](CCCNC(=N)N)NC(=O)CNC(=O)[C@H](CCCNC(=N)N)NC(=O)CNC(=O)[C@H](CCCNC(=N)N)NC(=O)CNC(=O)[C@H](CCCNC(=N)N)NC(=O)CNC(=O)[C@H](CCCNC(=N)N)NC(=O)CNC(=O)[C@H](CCCNC(=N)N)NC(=O)CNC(=O)[C@H](CCCNC(=N)N)NC(=O)CNC(=O)[C@H](CCCNC(=N)N)NC(=O)CNC(=O)[C@H](CCCNC(=N)N)NC(=O)CNC(=O)[C@H](CCCNC(=N)N)NC(=O)CNC(=O)[C@H](CCCNC(=N)N)NC(=O)CNC(=O)[C@H](CCCNC(=N)N)NC(=O)CNC(=O)[C@H](CCCNC(=N)N)NC(=O)CNC(=O)[C@H](CCCNC(=N)N)NC(=O)CNC(=O)[C@H](CCCNC(=N)N)NC(=O)CNC(=O)[C@H](CCCNC(=N)N)NC(=O)CN)C(=O)O [GR20]
concentration needed to inhibit translation in E. coli lysate [1]: > 10 µM | polysome profile, half-mer peaks [2]: appearance of half-mer peaks | visible opalescence (total HEK293 RNA): did not induce visible opalescence | OD600 change (total HEK293 RNA): increased OD600 | optical density relative to RNA alone (total HEK293 RNA): did not increase optical density | effect on nanoluciferase enzyme activity (nanoluciferase): do not affect enzyme activity

PRPRPRPRPRPRPRPRPRPRPRPRPRPRPRPRPRPRPRPR [PR20]
concentration needed to inhibit translation in E. coli lysate [1]: ≥ 5 µM | polysome profile, half-mer peaks [2]: appearance of half-mer peaks | visible opalescence (total HEK293 RNA): did not induce visible opalescence | OD600 change (total HEK293 RNA): increased OD600 | optical density relative to RNA alone (total HEK293 RNA): did not increase optical density | effect on nanoluciferase enzyme activity (nanoluciferase): do not affect enzyme activity
